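96-well plates; 48 h exposure; 5 concentrations. Endpoints by linear interpolation between flanking doses. Not reached: highest tested concentration assigned. GI50: concentration for 50% inhibition of growth. TGI: total growth inhibition.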
What was measured:
Experiment in all cases: NCI-60 cell line screen, 48 h
NCI-H460 lung = test system: NCI-H460 lung
SF-295 CNS = test system: SF-295 CNS
SW-620 colon = test system: SW-620 colon
NCI/ADR-RES ovarian = test system: NCI/ADR-RES ovarian
PC-3 prostate = test system: PC-3 prostate
HCC-2998 colon = test system: HCC-2998 colon
A498 renal = test system: A498 renal
KM12 colon = test system: KM12 colon
NCI-H226 lung = test system: NCI-H226 lung
OVCAR-5 ovarian = test system: OVCAR-5 ovarian

| Structure (SMILES) | GI50 (NCI-H460 lung) [nM] | TGI (NCI-H460 lung) [µM] | GI50 (SF-295 CNS) [nM] | TGI (SF-295 CNS) [µM] | GI50 (SW-620 colon) [nM] | TGI (SW-620 colon) [µM] | GI50 (NCI/ADR-RES ovarian) [µM] | TGI (NCI/ADR-RES ovarian) [µM] | GI50 (PC-3 prostate) [nM] | TGI (PC-3 prostate) [µM] | GI50 (HCC-2998 colon) [nM] | TGI (HCC-2998 colon) [µM] | GI50 (A498 renal) [nM] | TGI (A498 renal) [µM] | GI50 (KM12 colon) [nM] | TGI (KM12 colon) [µM] | GI50 (NCI-H226 lung) [nM] | TGI (NCI-H226 lung) [µM] | GI50 (OVCAR-5 ovarian) [nM] | TGI (OVCAR-5 ovarian) [µM] |
| --- | --- | --- | --- | --- | --- | --- | --- | --- | --- | --- | --- | --- | --- | --- | --- | --- | --- | --- | --- | --- |
| COc1cc(C)c(C(=O)O[C@H]2[C@H](O[C@H]3[C@@H](O)COC(O[C@H]4C[C@H]5[C@@H]6CC=C7C[C@@H](O)CC[C@]7(C)[C@H]6CC[C@]5(C)[C@H]4[C@H](C)C(=O)CCC(C)C)[C@@H]3OC(C)=O)OC[C@@H](O)[C@@H]2O)c(C)c1 (stereo not given in full) | < 10 | 1.74 | < 10 | < 0.01 | < 10 | 0.183 | 4.79 | 31.2 | < 10 | 2.4 | 2410 | 20.3 | < 10 | < 0.01 | 153 | 18.4 | 135 | 12.4 | 580 | 18.5 |
| O=C(c1ccccc1Nc1ccnc(C(F)(F)F)c1)N1CCN(c2cccc(Cl)c2)CC1 | 17600 | 44.6 | 16500 | 65.6 | 25000 | > 100 | 16.2 | 59.5 | 9450 | 53 | 24600 | > 72.9 | 12700 | 46.3 | 25700 | > 80.2 | 15000 | 49.2 | 27900 | > 86.4 |
| O=C(c1ccccc1)C1C(C(=O)c2ccccc2)N1Cc1ccccc1 (stereo not given) | – | > 100 | – | > 100 | – | > 100 | – | > 100 | – | > 100 | – | > 100 | – | > 100 | – | > 100 | – | > 100 | – | > 100 |
| C#CCN1C(=O)/C(=c2\sc3n(c2=O)C2C(NN=3)N(CC)C(=O)N2CC)c2ccccc21 (stereo not given) | 439 | > 100 | 529 | 8.83 | 422 | > 100 | 0.712 | 21.9 | 463 | > 100 | 1190 | > 100 | 186 | 0.728 | 460 | > 100 | 1250 | > 83.2 | 1210 | > 100 |
| C=C1CCC2C3(C)COC(c4ccc(NC(C)=O)cc4)OC3CCC2(C)C1C/C=C1/C(=O)OCC1O (stereo not given) | 4710 | > 100 | 1550 | 6.75 | 64300 | > 100 | 7.37 | > 100 | 3390 | > 100 | 7750 | > 100 | > 100000 | > 100 | 5070 | > 100 | 26300 | > 100 | > 100000 | > 100 |
| O=C1c2ccccc2C(=O)c2c(NCCCNCCO)ccc(NCCCNCCO)c21 | – | 15.5 | – | 31.9 | – | 17.6 | – | > 100 | – | 22.6 | – | 16.7 | – | 31.1 | – | 18.4 | – | 12.3 | – | 44.7 |
| O=C1c2ccccc2C(=O)c2c1ccc(C(Br)Br)c2[N+](=O)[O-] | 1890 | 5.09 | 3700 | 15.7 | 488 | 2.07 | 2.01 | 6.56 | 1740 | 3.47 | 2080 | 4.6 | 1670 | 7.73 | 1850 | 3.81 | 727 | 2.62 | 1720 | 4.4 |
